{
  "source": "patent US11446287B2",
  "about": "“Compounds and methods for EP300 or CBP modulation and indications therefor” (Opna Immuno-Oncology SA, priority 2019, dated 2022)",
  "note": "pIC50: −log10 of the molar value.",
  "data": [
    {"target": "T1, Recombinant human BRD4 containing dual bromodomains (BRD4-BD12 (1-477)) (Homo sapiens, UniProt O60885)", "T1 construct": "Recombinant human BRD4 containing dual bromodomains (BRD4-BD12 (1-477)); made in house; host or cells: E. coli BL21-CodonPlus (DE3), modified pET vector", "assay": "BRD4 Alphascreen binding assay", "in_short": "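AlphaScreen proximity between Ni-chelate-bound BRD4-BD12 (1-477) and streptavidin-captured H4 K5/K8/K12/K16-acetyl peptide measured after 1 h room-temperature compound incubation and 30 min with 7.5 μg/ml beads. Buffer: 50 mM HEPES pH 7.5, 50 mM NaCl, 0.01% BSA, 0.01% Triton X-100; data plate-normalized and four-parameter fit for IC50.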", "values": [
      {"smiles": "CCOc1ccc(C(=O)O)cc1-n1cc(-c2ccccc2)c2ncc(-c3c(C)noc3C)cc21", "note": "[P-0225, 3-(6-(3,5-dimethylisoxazol-4-yl)-3-phenyl-1H-pyrrolo[3,2-b]pyridin-1-yl)-4-ethoxybenzoic acid]", "pIC50": "5.10 to 6.00"},
      {"smiles": "Cc1noc(C)c1-c1cnc2c(c1)c(-c1ccc(C(=O)O)cc1OC(F)(F)F)cn2C1CCOCC1", "note": "[P-0226, 4-(5-(3,5-dimethylisoxazol-4-yl)-1-(tetrahydro-2H-pyran-4-yl)-1H-pyrrolo[2,3-b]pyridin-3-yl)-3-(trifluoromethoxy)benzoic acid]", "pIC50": "5.10 to 6.00"},
      {"smiles": "Cc1noc(C)c1-c1cnc2c(c1)c(-c1ccc(C(=O)O)cc1OC(F)(F)F)cn2C1CCC(F)(F)CC1", "note": "[P-0227, 4-(1-(4,4-difluorocyclohexyl)-5-(3,5-dimethylisoxazol-4-yl)-1H-pyrrolo[2,3-b]pyridin-3-yl)-3-(trifluoromethoxy)benzoic acid]", "pIC50": "5.10 to 6.00"},
      {"smiles": "Cc1noc(C)c1-c1cnc2c(c1)c(-c1ccc(C(=O)O)cc1OC(F)(F)F)c(C)n2-c1ccccn1", "note": "[P-0228, 4-(5-(3,5-dimethylisoxazol-4-yl)-2-methyl-1-(pyridin-2-yl)-1H-pyrrolo[2,3-b]pyridin-3-yl)-3-(trifluoromethoxy)benzoic acid]", "pIC50": "5.10 to 6.00"},
      {"smiles": "Cc1noc(C)c1-c1cnc2c(-c3ccc(F)cc3F)cn(-c3ccc(C(=O)O)cc3OC(F)(F)F)c2c1", "note": "[P-0229, 4-(3-(2,4-difluorophenyl)-6-(3,5-dimethylisoxazol-4-yl)-1H-pyrrolo[3,2-b]pyridin-1-yl)-3-(trifluoromethoxy)benzoic acid]", "pIC50": "5.10 to 6.00"},
      {"smiles": "Cc1noc(C)c1-c1cnc2c(c1)c(-c1c(F)cc(C(=O)O)cc1OC(F)(F)F)cn2C(C1CC1)C1CC1", "note": "[P-0230, 4-(1-(dicyclopropylmethyl)-5-(3,5-dimethylisoxazol-4-yl)-1H-pyrrolo[2,3-b]pyridin-3-yl)-3-fluoro-5-(trifluoromethoxy)benzoic acid]", "pIC50": "5.10 to 6.00"},
      {"smiles": "Cc1ccccc1-n1cc(-c2ccc(C(=O)O)cc2OC(F)(F)F)c2cc(-c3c(C)noc3C)cnc21", "note": "[P-0231, 4-(5-(3,5-dimethylisoxazol-4-yl)-1-(o-tolyl)-1H-pyrrolo[2,3-b]pyridin-3-yl)-3-(trifluoromethoxy)benzoic acid]", "pIC50": "3.00 to 5.10"},
      {"smiles": "Cc1noc(C)c1-c1cnc2c(c1)c(-c1ccc(C(=O)O)cc1OC(F)(F)F)cn2-c1ccc(F)cc1F", "note": "[P-0232, 4-(1-(2,4-difluorophenyl)-5-(3,5-dimethylisoxazol-4-yl)-1H-pyrrolo[2,3-b]pyridin-3-yl)-3-(trifluoromethoxy)benzoic acid]", "pIC50": "5.10 to 6.00"},
      {"smiles": "Cc1noc(C)c1-c1cnc2c(c1)c(-c1ccc(C(=O)O)cc1OC(F)(F)F)cn2-c1cc(F)ccc1F", "note": "[P-0233, 4-(1-(2,5-difluorophenyl)-5-(3,5-dimethylisoxazol-4-yl)-1H-pyrrolo[2,3-b]pyridin-3-yl)-3-(trifluoromethoxy)benzoic acid]", "pIC50": "5.10 to 6.00"},
      {"smiles": "Cc1noc(C)c1-c1cnc2c(-c3ccc(C(=O)O)cc3F)c(C(F)(F)F)n([C@@H](C)c3ccccn3)c2c1", "note": "[P-0234, (S)-4-(6-(3,5-dimethylisoxazol-4-yl)-1-(1-(pyridin-2-yl)ethyl)-2-(trifluoromethyl)-1H-pyrrolo[3,2-b]pyridin-3-yl)-3-fluorobenzoic acid]", "pIC50": "5.10 to 6.00"},
      {"smiles": "Cc1cc(C(=O)O)ccc1-c1c(C(F)(F)F)n([C@@H](C)c2ccccn2)c2cc(-c3c(C)noc3C)cnc12", "note": "[P-0235, (S)-4-(6-(3,5-dimethylisoxazol-4-yl)-1-(1-(pyridin-2-yl)ethyl)-2-(trifluoromethyl)-1H-pyrrolo[3,2-b]pyridin-3-yl)-3-methylbenzoic acid]", "pIC50": "3.00 to 5.10"},
      {"smiles": "COc1cc(C(=O)O)ccc1-c1c(C(F)(F)F)n([C@@H](C)c2ccccn2)c2cc(-c3c(C)noc3C)cnc12", "note": "[P-0236, (S)-4-(6-(3,5-dimethylisoxazol-4-yl)-1-(1-(pyridin-2-yl)ethyl)-2-(trifluoromethyl)-1H-pyrrolo[3,2-b]pyridin-3-yl)-3-methoxybenzoic acid]", "pIC50": "5.10 to 6.00"},
      {"smiles": "Cc1noc(C)c1-c1cnc2c(-c3cn(C)nc3C3CC3)c(C(F)(F)F)n([C@@H](C)c3ccccn3)c2c1", "note": "[P-0237, (S)-4-(3-(3-cyclopropyl-1-methyl-1H-pyrazol-4-yl)-1-(1-(pyridin-2-yl)ethyl)-2-(trifluoromethyl)-1H-pyrrolo[3,2-b]pyridin-6-yl)-3,5-dimethylisoxazole]", "pIC50": "5.10 to 6.00"},
      {"smiles": "Cc1noc(C)c1-c1cnc2c(-c3cc(C(=O)O)ccc3F)c(C(F)(F)F)n([C@@H](C)c3ccccn3)c2c1", "note": "[P-0238, (S)-3-(6-(3,5-dimethylisoxazol-4-yl)-1-(1-(pyridin-2-yl)ethyl)-2-(trifluoromethyl)-1H-pyrrolo[3,2-b]pyridin-3-yl)-4-fluorobenzoic acid]", "pIC50": "5.10 to 6.00"},
      {"smiles": "COc1ccc(C(=O)O)cc1-c1c(C(F)(F)F)n([C@@H](C)c2ccccn2)c2cc(-c3c(C)noc3C)cnc12", "note": "[P-0239, (S)-3-(6-(3,5-dimethylisoxazol-4-yl)-1-(1-(pyridin-2-yl)ethyl)-2-(trifluoromethyl)-1H-pyrrolo[3,2-b]pyridin-3-yl)-4-methoxybenzoic acid]", "pIC50": "3.00 to 5.10"},
      {"smiles": "Cc1noc(C)c1-c1cnc2c(-c3cc(F)cc(C(=O)O)c3)c(C(F)(F)F)n([C@@H](C)c3ccccn3)c2c1", "note": "[P-0240, (S)-3-(6-(3,5-dimethylisoxazol-4-yl)-1-(1-(pyridin-2-yl)ethyl)-2-(trifluoromethyl)-1H-pyrrolo[3,2-b]pyridin-3-yl)-5-fluorobenzoic acid]", "pIC50": "3.00 to 5.10"},
      {"smiles": "Cc1noc(C)c1-c1cnc2c(-c3cc(Cl)cc(C(=O)O)c3)c(C(F)(F)F)n([C@@H](C)c3ccccn3)c2c1", "note": "[P-0241, (S)-3-chloro-5-(6-(3,5-dimethylisoxazol-4-yl)-1-(1-(pyridin-2-yl)ethyl)-2-(trifluoromethyl)-1H-pyrrolo[3,2-b]pyridin-3-yl)benzoic acid]", "pIC50": "3.00 to 5.10"},
      {"smiles": "Cc1noc(C)c1-c1cnc2c(-c3ccc(C(=O)O)c(F)c3)c(C(F)(F)F)n([C@@H](C)c3ccccn3)c2c1", "note": "[P-0242, (S)-4-(6-(3,5-dimethylisoxazol-4-yl)-1-(1-(pyridin-2-yl)ethyl)-2-(trifluoromethyl)-1H-pyrrolo[3,2-b]pyridin-3-yl)-2-fluorobenzoic acid]", "pIC50": "3.00 to 5.10"}
    ]}
  ]
}
